In patent US8541581B2, “Inhibitors of fatty acid amide hydrolase” (Infinity Pharmaceuticals, Inc., priority 2009, dated 2013) one finds Ki data, which are given here for 18 compounds.

The target in the assay is T1, human FAAH (Homo sapiens, UniProt O00519).
T1 construct: host or cells: COS-7 cells, transient transfection; 13,000 g membrane fraction solubilized in 1% Triton X-100
T1 sequence (O00519 1-579): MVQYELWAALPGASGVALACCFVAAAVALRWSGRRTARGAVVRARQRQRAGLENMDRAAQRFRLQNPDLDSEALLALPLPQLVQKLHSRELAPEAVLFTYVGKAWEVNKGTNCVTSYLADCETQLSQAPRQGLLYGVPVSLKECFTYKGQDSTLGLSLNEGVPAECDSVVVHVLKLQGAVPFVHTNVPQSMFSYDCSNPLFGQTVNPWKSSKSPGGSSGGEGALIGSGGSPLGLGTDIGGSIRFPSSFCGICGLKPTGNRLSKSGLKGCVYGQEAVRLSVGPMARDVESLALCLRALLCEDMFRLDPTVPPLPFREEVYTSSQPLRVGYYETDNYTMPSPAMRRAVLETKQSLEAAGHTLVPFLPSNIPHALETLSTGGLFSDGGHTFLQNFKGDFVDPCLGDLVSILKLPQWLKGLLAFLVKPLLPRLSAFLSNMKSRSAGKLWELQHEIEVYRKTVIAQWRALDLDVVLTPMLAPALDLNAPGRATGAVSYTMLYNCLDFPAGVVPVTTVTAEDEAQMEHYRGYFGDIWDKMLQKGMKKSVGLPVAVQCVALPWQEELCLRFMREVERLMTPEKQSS
In words: Human FAAH fluorescence-based inhibition assay (AMC Arachidonoyl Amide hydrolysis). Type of assay: biochemical. The conditions noted are these: human FAAH from transfected COS-7 cells; 20 μM AMC-Arachidonoyl substrate; 30 min preincubation, 4 hours at room temperature. As to the method:
Exemplary compounds are set forth in the Examples provided below. Compounds were assayed as inhibitors of human FAAH using the method described in detail in Example 19.
The following assays can be used to determine the inhibition of FAAH: (1) a fluorescence-based assay (Manjunath et al., Analytical Biochemistry (2005) 343:143-151); and (2) a microsome-based fluorescent assay (Wang et al., Biomolecular Screening (2006) 1-9).
COS-7 cells were split the day before, 1:5 into 150 mm×25 mm cell culture dishes (Corning Inc., Cat. No. 430599). Transient transfection took place at 30-40% confluency according to FuGENE 6 Transfection Reagent (Roche, Cat. No. 11814 443 001).
The FuGENE transfection 6 reagent (45 uL) was added to 1410 μL of media (DMEM, serum free without pen/strep) in a 15 mL conical tube and incubated at room temp for 5 minutes, followed by the addition of FAAH plasmid DNA ([…]) (OriGene Cat. No. TC119221, Genbank Accession No. NM_001441.1, 0.67 ug/uL) and a further incubation of 15 minutes at room temperature. The resulting solution was added into one dish of 30-40% confluent COS-7 cells in a drop-wise manner. The COS-7 cell dish was subsequently incubated for 48 hours. The cells were then harvested.
Media was aspirated from the dishes and the cells rinsed with 10 mL PBS. The PBS was removed and 3 mL of PBS added to the dish. The dish was scraped to resuspend the cells, and the subsequent cell suspension collected into a 15 mL conical tube. The cells were pelleted by centrifugation at 1200 rpm for 5 minutes in a bench top centrifuge. PBS was removed and the cell pellet snap frozen in liquid nitrogen and stored at −80° C.
COS-7 Cells—FAAH Purification: • (1) Fractionation: Frozen cell pellets from transient transfections were thawed on ice and resuspended in 12.5 mM Hepes pH 8.0, 100 mM NaCl, 1 mM EDTA (10 mL/0.2 g cell pellet). The pellets were dounce homogenized and then sonicated to produce cell extract. The cell extract was subsequently centrifuged at 1000 g to remove cellular debris. The pellet was discarded and the supernatant centrifuged at 13,000 g for 20 minutes. The pellet contained membrane bound FAAH. The supernatant was discarded and the pellet resolubilized. • (2) Re-solubilization: The fraction of interest, (13,000 g, membrane fraction) was re-suspended in 2.3 mL re-suspension buffer (20 mM Hepes pH 7.8, 10% v/v Glycerol, 1 mM EDTA, 1% Triton X-100) and the sample incubated on ice for 1 hour and then centrifuged to remove any particulate matter. The supernatant containing solubilized human FAAH was aliquoted and snap frozen in liquid nitrogen and stored at −80° C. until use. • (3) Characterization: Protein Concentration determined by Bradford assay. • SDS gel and Western blot to confirm presence of FAAH • FAAH activity assay • Km determination—96-well assay • Linear dependence—96-well assay • Standard compound Ki determination—384-well assay
Rat FAAH biochemical assays were carried out in a 96 well flat bottom black non-treated polystyrene plates (Corning Costar Catalogue #3915). FAAH reaction buffer: 50 mM Hepes (pH 7.5), 1 mM EDTA, 0.2% Triton X-100. FAAH substrate-AMC Arachidonoyl Amide (Cayman Chemicals Company, Catalog #10005098). The reaction was read in an Envision microtiter plate reader [Excitation filter 355 nm (40 nm bandpass); Emission filter 460 nm (25 nm bandpass)]. The raw fluorescence was plotted on the y axis and the inhibitor concentration on the x axis to give a dose response inhibition curve. The data was fitted to a single site competitive inhibition equation, fixing the Km for the rat and human enzyme to 12 μM and 9 μM respectively.
The principle of this assay was the hydrolysis of AMC-Arichodonoyl, a fluorescent analogue of Anandamide, which results in the formation of Arachidonic acid and AMC. The formation of AMC results in an increase in fluorescence (see, for example, Manjunath et al., Analytical Biochemistry (2005) 343:143-151; and Wang et al., Biomolecular Screening (2006) 1-9). […]

Each structure is given as a SMILES string.

Take `CC(C)(C)OC(=O)N1CC=C(B(O)O)CC1` [Example 1]: the Ki (as a rule, the dissociation constant of the complex between target and ligand, obtained from inhibition or displacement) is 100 to 1000 nM.
To `O=C(OCc1ccccc1)N1CC=C(B(O)O)CC1` [Example 2] belongs 10 to 100 nM.
The result for `CC(=O)N1CC=C(B(O)O)CC1` [Example 3] reads more than 1000 nM; that for `O=C(c1ccc(Cl)cc1)N1CC=C(B(O)O)CC1` [Example 4], 10 to 100 nM; that for `Cc1c(C(=O)N2CC=C(B(O)O)CC2)sc2ccccc12` [Example 5], 10 to 100 nM.
With `Cc1c(CC(=O)N2CC=C(B(O)O)CC2)sc2ccccc12` [Example 6], the Ki lay in the range of 10 to 100 nM.
The result for `O=C(NCc1ccccc1)N1CC=C(B(O)O)CC1` [Example 7] reads 10 to 100 nM; that for `CC(C)(C)OC(=O)N1CCC(B(O)O)CC1` [Example 8], 10 to 100 nM; that for `O=C(OCc1ccccc1)N1CCC(B(O)O)CC1` [Example 9], 10 to 100 nM.
To `O=C(CCCCc1ccccc1)N1CCC(B(O)O)CC1` [Example 10] belongs 10 to 100 nM.
To `O=C(c1ccc(Cl)cc1)N1CCC(B(O)O)CC1` [Example 11] belongs 100 to 1000 nM.
As for `O=C(c1cnc2ccccc2c1)N1CCC(B(O)O)CC1` [Example 12], the Ki is 100 to 1000 nM.
As for `O=C(c1ccc2ccccc2n1)N1CCC(B(O)O)CC1` [Example 13], the Ki was 100 to 1000 nM.
`O=C(CNCc1ccccc1)N1CCC(B(O)O)CC1` [Example 14] returned a Ki of more than 1000 nM.
The compound `O=C([C@H]1CCCN1)N1CCC(B(O)O)CC1` [Example 15] had a Ki of more than 1000 nM.
To `Cc1ccc(S(=O)(=O)N2CCC(B(O)O)CC2)cc1` [Example 16] belongs 100 to 1000 nM.
`OB(O)C1CCN(Cc2ccccc2)CC1` [Example 17] yielded a Ki of more than 1000 nM.
To `Cc1c(CN2CCC(B(O)O)CC2)sc2ccccc12` [Example 18] belongs 10 to 100 nM.
